Species: Rattus norvegicus
Assay: DrugMatrix - Regimen: Daily Repeat
Assay type: toxicity, organism-based, Sprague-Dawley
Design: regimen Daily Repeat, gender Male, age 6-8 weeks
Conditions: in vivo, iv, vehicle 100 % SALINE; for ABSOLUTE BASOPHIL / ABSOLUTE EOSINOPHIL / ABSOLUTE LYMPHOCYTE / ABSOLUTE MONOCYTE / ABSOLUTE SEGMENTED NEUTROPHIL / BASOPHIL / EOSINOPHIL / ERYTHROCYTE COUNT / HEMATOCRIT / HEMOGLOBIN / LEUKOCYTE COUNT / LYMPHOCYTE / MEAN CORPUSCULAR HEMOGLOBIN / MEAN CORPUSCULAR HEMOGLOBIN CONCENTRATION / MEAN CORPUSCULAR VOLUME / MONOCYTE / NEUTROPHIL / NUCLEATED RED BLOOD CELLS / PLATELET COUNT: tissue Blood; for ALANINE AMINOTRANSFERASE / ALBUMIN / ALKALINE PHOSPHATASE / ASPARTATE AMINOTRANSFERASE / BLOOD UREA NITROGEN / CARBON DIOXIDE / CHLORIDE / CHOLESTEROL / CREATINE PHOSPHOKINASE / CREATININE / GLUCOSE / LACTATE DEHYDROGENASE / LIPASE / PHOSPHORUS / POTASSIUM / SODIUM / TOTAL BILIRUBIN / TOTAL PROTEIN / URIC ACID: tissue Plasma
[1] = 29 mg/kg, 120 h, dose level Low, time 5 day
[2] = 48 mg/kg, 72 h, dose level High, time 3 day
[3] = 48 mg/kg, 120 h, dose level High, time 5 day

C[n+]1ccccc1/C=N/O.[Cl-] [PRALIDOXIME CHLORIDE]
ABSOLUTE BASOPHIL [1]: 0 CELLS/uL
ABSOLUTE EOSINOPHIL [1]: 0 CELLS/uL
ABSOLUTE LYMPHOCYTE [1]: 11211.67 CELLS/uL
ABSOLUTE MONOCYTE [1]: 254 CELLS/uL
ABSOLUTE SEGMENTED NEUTROPHIL [1]: 1034.33 CELLS/uL
BASOPHIL [1]: 0%
EOSINOPHIL [1]: 0%
ERYTHROCYTE COUNT [1]: 5.41 x10E6/uL
HEMATOCRIT [1]: 34.03%
HEMOGLOBIN [1]: 12.57 G/DL
LEUKOCYTE COUNT [1]: 12.5 x10E3/uL
LYMPHOCYTE [1]: 89.67%
MEAN CORPUSCULAR HEMOGLOBIN [1]: 23.3 pg
MEAN CORPUSCULAR HEMOGLOBIN CONCENTRATION [1]: 36.97 G/DL
MEAN CORPUSCULAR VOLUME [1]: 63 fL
MONOCYTE [1]: 2%
NEUTROPHIL [1]: 8.33%
NUCLEATED RED BLOOD CELLS [1]: 0 /100WBC
PLATELET COUNT [1]: 1164.33 x10E3/uL
ALANINE AMINOTRANSFERASE [1]: 69.67 u/L
ALBUMIN [1]: 3.7 G/DL
ALKALINE PHOSPHATASE [1]: 366.67 u/L
ASPARTATE AMINOTRANSFERASE [1]: 95.33 u/L
BLOOD UREA NITROGEN [1]: 17.67 mg/dL
CARBON DIOXIDE [1]: 22.67 mmol/L
CHLORIDE [1]: 105 MEQ/L
CHOLESTEROL [1]: 58.67 mg/dL
CREATINE PHOSPHOKINASE [1]: 283.67 u/L
CREATININE [1]: 0.2 mg/dL
GLUCOSE [1]: 168.67 mg/dL
LACTATE DEHYDROGENASE [1]: 87.33 u/L
LIPASE [1]: 9 u/L
PHOSPHORUS [1]: 12.73 mg/dL
POTASSIUM [1]: 7.24 MEQ/L
SODIUM [1]: 145.2 MEQ/L
TOTAL BILIRUBIN [1]: 0.1 mg/dL
TOTAL PROTEIN [1]: 5.83 G/DL
URIC ACID [1]: 1.97 mg/dL
ABSOLUTE BASOPHIL [2]: 0 CELLS/uL
ABSOLUTE EOSINOPHIL [2]: 0 CELLS/uL
ABSOLUTE LYMPHOCYTE [2]: 13021.33 CELLS/uL
ABSOLUTE MONOCYTE [2]: 38.67 CELLS/uL
ABSOLUTE SEGMENTED NEUTROPHIL [2]: 1206.67 CELLS/uL
BASOPHIL [2]: 0%
EOSINOPHIL [2]: 0%
ERYTHROCYTE COUNT [2]: 5.54 x10E6/uL
HEMATOCRIT [2]: 36.53%
HEMOGLOBIN [2]: 13.53 G/DL
LEUKOCYTE COUNT [2]: 14.27 x10E3/uL
LYMPHOCYTE [2]: 91.33%
MEAN CORPUSCULAR HEMOGLOBIN [2]: 24.57 pg
MEAN CORPUSCULAR HEMOGLOBIN CONCENTRATION [2]: 37.03 G/DL
MEAN CORPUSCULAR VOLUME [2]: 66.2 fL
MONOCYTE [2]: 0.33%
NEUTROPHIL [2]: 8.33%
NUCLEATED RED BLOOD CELLS [2]: 0 /100WBC
PLATELET COUNT [2]: 1281.33 x10E3/uL
ALANINE AMINOTRANSFERASE [2]: 51.67 u/L
ALBUMIN [2]: 4.43 G/DL
ALKALINE PHOSPHATASE [2]: 377.33 u/L
ASPARTATE AMINOTRANSFERASE [2]: 70.67 u/L
BLOOD UREA NITROGEN [2]: 14.67 mg/dL
CARBON DIOXIDE [2]: 19.33 mmol/L
CHLORIDE [2]: 101.33 MEQ/L
CHOLESTEROL [2]: 73.67 mg/dL
CREATINE PHOSPHOKINASE [2]: 198.33 u/L
CREATININE [2]: 0.19 mg/dL
GLUCOSE [2]: 169.33 mg/dL
LACTATE DEHYDROGENASE [2]: 89.67 u/L
LIPASE [2]: 10 u/L
PHOSPHORUS [2]: 11.87 mg/dL
POTASSIUM [2]: 6 MEQ/L
SODIUM [2]: 146.3 MEQ/L
TOTAL BILIRUBIN [2]: 0.2 mg/dL
TOTAL PROTEIN [2]: 6.03 G/DL
URIC ACID [2]: 1.37 mg/dL
ABSOLUTE BASOPHIL [3]: 0 CELLS/uL
ABSOLUTE EOSINOPHIL [3]: 56 CELLS/uL
ABSOLUTE LYMPHOCYTE [3]: 13632 CELLS/uL
ABSOLUTE MONOCYTE [3]: 1059.33 CELLS/uL
ABSOLUTE SEGMENTED NEUTROPHIL [3]: 1786 CELLS/uL
BASOPHIL [3]: 0%
EOSINOPHIL [3]: 0.33%
ERYTHROCYTE COUNT [3]: 5.32 x10E6/uL
HEMATOCRIT [3]: 32.57%
HEMOGLOBIN [3]: 12.23 G/DL
LEUKOCYTE COUNT [3]: 16.53 x10E3/uL
LYMPHOCYTE [3]: 82.33%
MEAN CORPUSCULAR HEMOGLOBIN [3]: 23 pg
MEAN CORPUSCULAR HEMOGLOBIN CONCENTRATION [3]: 37.57 G/DL
MEAN CORPUSCULAR VOLUME [3]: 61.17 fL
MONOCYTE [3]: 6.33%
NEUTROPHIL [3]: 11%
NUCLEATED RED BLOOD CELLS [3]: 0 /100WBC
PLATELET COUNT [3]: 992.67 x10E3/uL
ALANINE AMINOTRANSFERASE [3]: 69 u/L
ALBUMIN [3]: 3.57 G/DL
ALKALINE PHOSPHATASE [3]: 386.67 u/L
ASPARTATE AMINOTRANSFERASE [3]: 113.33 u/L
BLOOD UREA NITROGEN [3]: 16 mg/dL
CARBON DIOXIDE [3]: 27 mmol/L
CHLORIDE [3]: 104.33 MEQ/L
CHOLESTEROL [3]: 62 mg/dL
CREATINE PHOSPHOKINASE [3]: 792 u/L
CREATININE [3]: 0.2 mg/dL
GLUCOSE [3]: 194 mg/dL
LACTATE DEHYDROGENASE [3]: 193.33 u/L
LIPASE [3]: 11.33 u/L
PHOSPHORUS [3]: 11.63 mg/dL
POTASSIUM [3]: 6.09 MEQ/L
SODIUM [3]: 144.97 MEQ/L
TOTAL BILIRUBIN [3]: 0.13 mg/dL
TOTAL PROTEIN [3]: 6.03 G/DL
URIC ACID [3]: 1.73 mg/dL

Reference: ChEMBL document CHEMBL3885881, “DrugMatrix”
